Where no end group is shown, it is not given here.

One assay relates to classical pathway. The experiment in a line: Classical pathway component assay (immune complex, ELISA for C5a, SC5b-9, C3a). It counts as biochemical, human. As to conditions: classical pathway, immune complex, human plasma. The method, then:
The inhibition of the classical pathway by the peptides was measured by incubating human plasma in the presence and absence of peptides with an immune complex generated on a surface and then monitoring for the production of complement components C5a, SC5b-9, and C3a. To generate the immune complex, a 10 mg/mL solution of BSA in PBS was incubated at 56° C. for 30 minutes and then used to coat the surface of a microplate by diluting to 50 μg/mL at pH 9.6 and incubating for one hour at 37° C. The plate was washed and then incubated with 18 μg/mL mouse anti-BSA IgG2a (Sigma) for one hour at 37° C. Pooled human plasma with and without various concentrations of peptide were incubated for 30 minutes at 37° C. with the generated immune complex and the reaction was stopped with the addition of EDTA. The plasma samples were then analyzed with commercially available ELISA's for the production of C5a (Pharmingen), SC5b-9 (Quidel), and C3a (Quidel).

Assay [1] concerns complement system activated by zymosan. In words: Alternative activation pathway zymosan assay (ELISA for C5a, SC5b-9, C3a). It counts as biochemical. The note with it: 2 mg/mL zymosan, human plasma. The method, then: The peptides were evaluated for involvement in activation of the complement system by the presence of zymosan. Zymosan, or yeast cell wall, has largely been described as an alternative pathway activator. In addition, there are sugars on the surface of the yeast cell wall which are capable of activating the lectin pathway. Therefore, zymosan can be considered as a general complement activator.
Varying concentrations of peptide were incubated with 2 mg/mL zymosan in pooled human plasma. The reactions were incubated at 37° C. for one hour and then stopped by the addition of EDTA. The samples were centrifuged, the plasma removed, and analyzed with commercially available ELISA's for the production of C5a (Pharmingen), SC5b-9 (Quidel), and C3a (Quidel).
(In an ELISA, binding on a coated surface is turned into a signal by an enzyme label.)

The subject of assay [2] is classical pathway; antibody sensitized sheep erythrocyte cells. In words: Classical pathway hemolytic assay (RBC hemolysis assay). It counts as cell-based, human. The note with it: for inhibition of hemolysis: 100 uM peptide. As to the method: Inhibition of the classical pathway by the peptides was measured using a standard hemolysis assay, which monitors the lysis of sheep erythrocytes as a result of terminal complex formation (see e.g. FIG. 1, FIG. 10). Various concentrations of peptide were incubated with 50 μL pooled human plasma (diluted 1:30 with GVB^++), 5×10^7 antibody sensitized sheep erythrocyte cells, and GVB^++ buffer to a final volume of 200 μL. The reaction was incubated at 37° C. for one hour and centrifuged. The percentage of lysis was determined by measuring the optical density of the supernatant at 414 nm. 100% lysis was determined by the optical density at 414 nm of the supernatant from a control sample consisting of 5×10^7 antibody sensitized sheep erythrocyte cells in water. The percent inhibition was calculated as the (% lysisno peptide−% lysispeptide)/% lysisno peptide×100.

The target of a further assay is T1, complement component C5 (Homo sapiens, UniProt P01031).
T1 construct: purchased Advanced Research Technologies
In words: Phage clone binding to C5 and free-peptide competition assay. As to conditions: for competition among phage clones and free peptides for binding to C5: free peptide at 50, 10 and 1 μM; for specific binding to complement component C5: phage panning / phage clone binding. The method, then: Peptides were identified by panning an M13 phage library (New England Biolabs), a random 12mer peptide library with a diversity of 10^11 different peptide structures, against complement component C5. The phage library was panned against C5 using three different methods for immobilizing C5. The binding reactions all contained 2×10^11 phage particles in PBS containing 0.5% BSA and 0.3% Tween 20. The binding reactions were carried out at 25° C. for two hours and then unbound phage were removed by washing 5 times with PBS containing 0.5% BSA and 0.3% Tween20. The phage were eluted by acid (0.2 M Glycine pH 2.2, 1 mg/mL BSA) and immediately neutralized with 1 M Tris pH 9.1. Following elution, recovered phage were amplified in ER2738 E. coli (NEB) and subjected to two more rounds of panning as described above. The methods for immobilizing C5 include directly coating C5 (Advanced Research Technologies) to the surface (1 μg/mL), capturing biotinylated C5 (1 μg/mL) on a neutravidin (Pierce) coated surface, and capturing biotinylated C5a (1 μg/mL) on a neutravidin (Pierce) coated surface. C5 and C5a (Quidel) were biotinylated by incubating with 10 fold molar excess of Sulfo-NHS-LC-LC-Biotin for 2 hours at room temperature at pH 7.4 and then removing excess biotin by gel filtration. A negative selection was performed in the final round against neutravidin for the two latter screening methods. DNA from twenty randomly selected clones from each of the three final libraries was isolated and sequenced.
The binding sites of the peptides were further probed via C5-binding competition assays. Increasing concentrations of each phage clone were incubated for 2 hours with 200 ng of biotinylated C5 in PBS containing 0.5% BSA. The phage bound C5 complex was captured on a neutravidin coated microplate for 20 minutes at room temperature and then washed with PBS containing 0.5% BSA. A peroxidase labeled anti-M13 antibody (Pharmacia) was used to detect the amount of phage bound to C5 with OPD substrate. Competition assays with free peptide were carried out in a similar manner except that one concentration of each phage clone was used which was determined as the concentration giving approximately 50% binding in the previous titration. Free peptide was added to the phage clones at concentrations of 50, 10 and 1 μM and incubated with the biotinylated C5 and the assay was carried out as above.

The next assay concerns alternative pathway. In words: Alternative activation pathway C.A. membrane assay (ELISA for C5a, SC5b-9, C3a). It counts as biochemical. The note with it: cellulose acetate hemodialysis membrane, human plasma. The method, then: Inhibition of the alternative pathway by the peptides was determined by incubating pooled human plasma in the presence and absence of various concentrations of peptide with 20 mg of cellulose acetate hemodialysis membrane at 37° C. for one hour. The reaction was stopped with EDTA and then the samples were analyzed with commercially available ELISA's for the production of C5a (Pharmingen), SC5b-9 (Quidel), and C3a (Quidel).

For another assay, the system named is Human mesangial cells. In words: Inhibition of complement mediated cell death, in vitro autoimmune glomerulonephritis model. It counts as cell-based. The note with it: 250 μM of peptide, 48 hours. As to the method:
The peptides were evaluated for their ability to inhibit complement mediated cell death in an in vitro autoimmune glomerulonephritis model. Human mesangial cells were cultured to approximately 75% confluency and then treated for one hour at 37° C. with phosphatidyl inositol-phospholipase C to remove GPI-anchored complement regulatory proteins. Following enzyme treatment, the cells were washed and equilibrated in GSBM growth medium supplemented with 2.5% fetal bovine serum for one hour at 37° C. The cells were then incubated in pooled human plasma supplemented with 100 μg/mL of heat aggregated human IVIG (generated by heating at 63° C. for 30 minutes) either in the presence of absence of various concentrations of peptides for 48 hours at 37° C. The source of complement was replenished every 12 hours during the incubation by adding 25% of the original volume of fresh plasma along with heat aggregated IVIG and peptides so that the same final concentrations were maintained. Following the 48 hour incubation, the cells were stained with the commercial Live/Dead Viability kit (Molecular Probes) and the relative fluorescence was measured to determine the extent of cell death. The percent of cell death was calculated versus a control sample in which heat-inactivated plasma, (heated to 56° C. for 30 minutes) as a means of inactivating complement components, was used.

T1 sequence (P01031 19-1676): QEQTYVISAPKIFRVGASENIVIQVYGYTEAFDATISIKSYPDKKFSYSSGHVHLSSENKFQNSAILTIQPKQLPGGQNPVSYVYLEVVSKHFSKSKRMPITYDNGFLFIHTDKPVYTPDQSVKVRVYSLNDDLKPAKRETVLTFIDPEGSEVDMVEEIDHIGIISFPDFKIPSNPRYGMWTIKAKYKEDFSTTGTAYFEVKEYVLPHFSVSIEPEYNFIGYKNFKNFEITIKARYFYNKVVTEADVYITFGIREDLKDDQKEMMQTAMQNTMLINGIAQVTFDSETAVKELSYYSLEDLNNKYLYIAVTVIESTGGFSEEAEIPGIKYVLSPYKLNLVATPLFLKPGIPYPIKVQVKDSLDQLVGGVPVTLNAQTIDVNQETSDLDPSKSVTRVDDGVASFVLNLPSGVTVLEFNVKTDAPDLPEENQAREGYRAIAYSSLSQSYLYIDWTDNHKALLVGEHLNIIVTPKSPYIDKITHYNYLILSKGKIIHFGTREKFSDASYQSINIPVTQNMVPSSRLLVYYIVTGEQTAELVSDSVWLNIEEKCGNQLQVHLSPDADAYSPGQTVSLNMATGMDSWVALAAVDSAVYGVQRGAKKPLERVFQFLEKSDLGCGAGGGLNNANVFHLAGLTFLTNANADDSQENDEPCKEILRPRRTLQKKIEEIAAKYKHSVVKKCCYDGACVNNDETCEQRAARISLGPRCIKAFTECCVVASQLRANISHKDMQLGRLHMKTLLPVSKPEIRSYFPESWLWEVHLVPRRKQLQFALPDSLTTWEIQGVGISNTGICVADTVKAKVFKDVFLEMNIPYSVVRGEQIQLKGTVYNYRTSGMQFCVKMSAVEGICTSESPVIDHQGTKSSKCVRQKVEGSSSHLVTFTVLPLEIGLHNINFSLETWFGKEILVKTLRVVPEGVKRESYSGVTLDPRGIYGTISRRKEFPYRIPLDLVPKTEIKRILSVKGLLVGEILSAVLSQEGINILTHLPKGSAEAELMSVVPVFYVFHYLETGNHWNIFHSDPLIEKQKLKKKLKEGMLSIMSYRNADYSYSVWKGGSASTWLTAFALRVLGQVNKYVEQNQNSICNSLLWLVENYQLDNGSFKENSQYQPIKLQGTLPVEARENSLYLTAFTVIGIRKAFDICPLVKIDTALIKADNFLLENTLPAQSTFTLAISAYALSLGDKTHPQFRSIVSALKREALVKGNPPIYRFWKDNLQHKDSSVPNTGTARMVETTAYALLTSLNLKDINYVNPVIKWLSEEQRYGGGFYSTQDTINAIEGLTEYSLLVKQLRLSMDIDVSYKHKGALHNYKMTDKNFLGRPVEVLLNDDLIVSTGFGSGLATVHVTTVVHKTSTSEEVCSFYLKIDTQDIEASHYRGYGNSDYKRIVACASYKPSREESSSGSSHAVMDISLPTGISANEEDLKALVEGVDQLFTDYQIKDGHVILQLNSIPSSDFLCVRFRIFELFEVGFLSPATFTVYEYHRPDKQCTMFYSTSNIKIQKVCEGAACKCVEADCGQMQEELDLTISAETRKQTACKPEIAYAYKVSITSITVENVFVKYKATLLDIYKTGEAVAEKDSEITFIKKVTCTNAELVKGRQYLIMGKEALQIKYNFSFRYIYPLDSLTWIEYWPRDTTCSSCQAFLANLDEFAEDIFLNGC

As to SFNDLLWRWEWP [Peptide 7], in the assay on classical pathway, the C3a production result is on record as “enhanced production”, the C5a production result was “inhibited” and the SC5b-9 production entry is reported as “inhibited”. Besides, in assay [1], the C3a generation result is listed as “activated”, the C5a production entry is “inhibited” and the SC5b-9 production result is listed as “inhibited”. Also, the inhibition of hemolysis result in assay [2] was “significant inhibition of hemolysis”. Also, at complement component C5, the “competition among phage clones and free peptides for binding to C5” value is reported as “significant competition”; the “specific binding to complement component C5” value (shortened to “specific binding”) is “specifically bound complement component C5”. Also, in the assay with alternative pathway, the C3a production entry is listed as “activated”, the C5a generation entry is given as “inhibited” and the SC5b-9 generation entry is reported as “inhibited”.
TEEVRWEFPL [Peptide 117]: in the assay on Human mesangial cells, the “inhibition of complement mediated cell death” value is reported as “up to 69%”. Further, in assay [2], the “inhibitory activity in RBC hemolysis assay compared with parent peptide” value is listed as “enhanced the levels of inhibitory activity”.
Regarding TQDNRWEFPLRV [Peptide 13], in the assay with classical pathway, the C3a production entry was “neither of these peptides produced an effect”, the C5a production result was “dose-dependent increase in the inhibition” and the SC5b-9 production result is reported as “dose-dependent increase in the inhibition”. Also, in assay [1], the C3a generation result is “no observeable effect”, the C5a production result is given as “inhibited” and the SC5b-9 production result is recorded as “inhibited”. In assay [2], the “inhibitory activity in RBC hemolysis assay compared with parent peptide” value is reported as “almost comparable activity” and the inhibition of hemolysis result is listed as “significant inhibition of hemolysis”. Further, at complement component C5, the “competition among phage clones and free peptides for binding to C5” value was “significant competition”; the “specific binding” value is reported as “specifically bound complement component C5”. Also, in the assay on alternative pathway, the C3a production entry was “no effect”, the C5a generation entry is “dose-dependent inhibition” and the SC5b-9 generation entry is listed as “dose-dependent inhibition”.
Consider DSTWTNFRWEFY [Peptide 8], for which, in the assay on classical pathway, the C3a production entry was “neither of these peptides produced an effect”, the C5a production entry was “dose-dependent increase in the inhibition” and the SC5b-9 production entry was “dose-dependent increase in the inhibition”. In assay [1], the C3a generation result is given as “no observeable effect”, the C5a production entry is recorded as “inhibited” and the SC5b-9 production entry is given as “inhibited”. Further, in assay [2], the inhibition of hemolysis result is reported as “significant inhibition of hemolysis”. At complement component C5, the “competition among phage clones and free peptides for binding to C5” value was “significant competition”; the “specific binding” value is “specifically bound complement component C5”. Further, in the assay with alternative pathway, the C3a production entry is “no effect”, the C5a generation result was “dose-dependent inhibition” and the SC5b-9 generation result was “dose-dependent inhibition”.

For the origin of these results see US7348401B2, “Peptides that inhibit complement activation” (priority 2003, dated 2008).
